Drawing on US20050014685A1, “New compound” (FUJISAWA PHARMACEUTICAL CO., LTD., priority 2003, published 2005), this text covers MIC for 3 compounds.

*1 amine or outer side, *2 acyl side, *3 side chain or, on linkers, in order; H or OH if unused. Where a SMILES comes first, the peptide text is derived from it. Bridges are numbered along the chain shown (N, C = ends). [ ]: non-standard residue; d: D form. The star is where a group is joined. X2 = C[C@H]1CC[C@@H](N2CCN(c3ccc(-c4nnc(-c5ccc(C(=O)*)cc5)s4)cc3)CC2)CC1; X1 = O=C(c1ccc(-c2nnc(-c3ccc(N4CCN(C5CCCCC5)CC4)cc3)s2)cc1)*; Orn(3R-OH,Nδ-CH(CH2OH)2) = N[C@H](C(=O)O)[C@H](O)CCNC(CO)CO; hTyr(βR-OH,3-OMe) = COc1cc(C[C@@H](O)[C@H](N)C(=O)O)ccc1O; Orn(4R-OH) = O=C([C@H](C[C@@H](O)CN[*:3])N[*:1])[*:2]; Pro(3S-OH,4S-Me) = C[C@H]1CN[C@H](C(=O)O)[C@H]1O; Orn(3R-OH) = NCC[C@@H](O)[C@H](N)C(=O)O; Hyp = O=C(O)[C@@H]1C[C@@H](O)CN1

The test system of this test is Candida albicans FP-633. It counts as cell-based. Particulars: FP-633, pH 7.3. Here is the method:
In vitro antimicrobial activity of the object compound of Examples 1, 7, 12 and 19 disclosed later was determined by MICs in mouse serum as described below.
The MIC5 in mouse serum were determined by the microdilution method using ICR mouse serum buffered with 20 mM HEPES buffer (pH 7.3) as a test medium. Inoculum suspension of 10^6 cells/ml were prepared by a hemocytometric procedure and diluted to obtain an inoculum size of approximately 1.0×10^3 cells/ml. Microplates were incubated at 37° C. for […] in 5% CO2. The MICs was defined as the lowest concentrations at which no visible growth was observed.
Broadly, the MIC is the least concentration at which growth counts as inhibited. Lower therefore signals inhibition by little substance. Regarding `COc1cc(C[C@@H](O)[C@@H]2NC(=O)[C@@H]3C[C@@H](O)CN3C(=O)[C@H]([C@@H](C)O)NC(=O)[C@@H](NC(=O)c3ccc(-c4nnc(-c5ccc(N6CCN([C@H]7CC[C@@H](C)CC7)CC6)cc5)s4)cc3)C[C@@H](O)CNC(=O)[C@@H]3[C@@H](O)[C@@H](C)CN3C(=O)[C@H]([C@H](O)CCNC(CO)CO)NC2=O)ccc1O` [Example 19] (X2-[Orn(4R-OH)]T[Hyp][hTyr(βR-OH,3-OMe)][Orn(3R-OH,Nδ-CH(CH2OH)2)][Pro(3S-OH,4S-Me)]; lactam 1-C), the MIC was <0.2 µg/mL. `COc1cc(C[C@@H](O)[C@@H]2NC(=O)[C@@H]3C[C@@H](O)CN3C(=O)[C@H]([C@@H](C)O)NC(=O)[C@@H](NC(=O)c3ccc(-c4nnc(-c5ccc(N6CCN([C@H]7CC[C@@H](C)CC7)CC6)cc5)s4)cc3)C[C@@H](O)CNC(=O)[C@@H]3[C@@H](O)[C@@H](C)CN3C(=O)[C@H]([C@H](O)CCN)NC2=O)ccc1O` [Example 1] (X2-[Orn(4R-OH)]T[Hyp][hTyr(βR-OH,3-OMe)][Orn(3R-OH)][Pro(3S-OH,4S-Me)]; lactam 1-C): the MIC is <0.2 µg/mL. With `COc1cc(C[C@@H](O)[C@@H]2NC(=O)[C@@H]3C[C@@H](O)CN3C(=O)[C@H]([C@@H](C)O)NC(=O)[C@@H](NC(=O)c3ccc(-c4nnc(-c5ccc(N6CCN(C7CCCCC7)CC6)cc5)s4)cc3)C[C@@H](O)CNC(=O)[C@@H]3[C@@H](O)[C@@H](C)CN3C(=O)[C@H]([C@H](O)CCN)NC2=O)ccc1O` [Example 7] (X1-[Orn(4R-OH)]T[Hyp][hTyr(βR-OH,3-OMe)][Orn(3R-OH)][Pro(3S-OH,4S-Me)]; lactam 1-C), the MIC was <0.2 µg/mL.
